Values quoted from earlier work, collected in patent US20040208864A1, “Methods of improving health-related quality of life in individuals with systemic lupus erythematosus” (priority 2002, published 2004).

System: anti-dsDNA
Conditions: patients with SLE; cited from earlier work

## abetimus sodium (sense GTGTGTGTGTGTGTGTGTGT; antisense CACACACACACACACACACA; sense: DNA, backbone not given here; antisense: DNA, backbone and methylation of C not given here; four deoxynucleotide duplexes bound to triethylene glycol valency platform) [LJP 394, tetravalent conjugate: four (CA)10.(TG)10 double-stranded 20-mer oligonucleotides on a triethylene glycol based valency platform]
  Effect on anti-dsDNA titers: selectively reduces anti-dsDNA titers
